Data as given in patent publication US9968587B2, “Heterocycle analogs of CAI-1 as agonists of quorum sensing in vibrio” (THE TRUSTEES OF PRINCETON UNIVERSITY, priority 2013, dated 2018).
Like-named read-outs stand apart in the source and are kept apart here.

Assays:
[1] = target: V. cholerae CqsS receptor (Vibrio cholerae serotype O1, UniProt Q9KM66); assay: CqsS agonist bioassay (V. cholerae reporter strain MM920, bioluminescence); conditions: for QS agonist potency (in words) / level of QS activation (in words): CqsS agonist bioassay; for EC50: mean of triplicate analyses
From the text: The molecules were bioassayed in a system that exploits the V. cholerae quorum sensing circuit. The bioassay used a bacterial reporter strain to measure the QS response. Values for percent of activation correspond to the level of bioluminescence produced in the bacterial reporter strain at saturating concentrations of molecule compared to the maximal levels produced in the presence of a native autoinducer molecule (Ea-CAI-1). […] The EC50 values correspond to the concentrations that are required to activate quorum sensing to its half-maximal level.
DMSO was used as the negative control.
EC50 values were calculated by Prism 5 using standard settings and are described in the Tables and text with the error representing the 95% confidence interval for the calculated EC50 value.
The values for % response described in the Tables and text describe the maximal luminescence change for each of the analogs as a percent of EaCAI-1 or 18 (set at 100%). One of these molecules was included as a positive standard of activity for each of the assays.

TcpA = assay: Western blot analysis of TcpA production; type: cell-based, Vibrio cholerae; conditions: FIG. 3, DMSO control
From the text: (§1) In vivo, HapR is a transcription factor that functions as one of two master QS regulators in V. cholerae. Agonism of CqsS leads to increased production of HapR and HapR, in turn, drives the high-cell density gene expression program, which leads to repression of the expression of genes required for virulence and biofilm formation. […] Conversely, production the major V. cholerae virulence factor, TcpA, (toxin-co-regulated pilis protein subunit A), is repressed by both CAI-1 and compound 18.
(§2) Overnight cultures of V. cholerae CqsA-LuxQ—were diluted 1000-fold in AKI medium containing the indicated compounds. The cultures were grown under static conditions at 37° C. for 4 h and then were shaken for 18 h at 37° C. Cells were collected by centrifugation, TcpA and HapR from different samples were analyzed by Western Blot as described in references.

[2] = test system: Vibrio cholerae strain MM920; assay: Cytotoxicity of compound 18 in V. cholerae as assessed by OD600; conditions: FIG. 9, OD600
HapR = assay: Western blot analysis of HapR production; type: cell-based, Vibrio cholerae
From the text: as §1, §2

[3] = EC50, complete bioassay data, error = 95% confidence interval
[4] = read-out: % Response, complete bioassay data, percent maximal bioluminescence with respect to Ea-CAI-1 (100%), error = 95% confidence interval
[5] = EC50, QS agonist activity, reporter strain MM920, 4-hour incubation at 30° C.
[6] = read-out: % Response, Percent maximal bioluminescence with respect to Ea-CAI-1, which is set at 100%

V. cholerae CqsS receptor, sequence (Q9KM66 whole entry, looked up): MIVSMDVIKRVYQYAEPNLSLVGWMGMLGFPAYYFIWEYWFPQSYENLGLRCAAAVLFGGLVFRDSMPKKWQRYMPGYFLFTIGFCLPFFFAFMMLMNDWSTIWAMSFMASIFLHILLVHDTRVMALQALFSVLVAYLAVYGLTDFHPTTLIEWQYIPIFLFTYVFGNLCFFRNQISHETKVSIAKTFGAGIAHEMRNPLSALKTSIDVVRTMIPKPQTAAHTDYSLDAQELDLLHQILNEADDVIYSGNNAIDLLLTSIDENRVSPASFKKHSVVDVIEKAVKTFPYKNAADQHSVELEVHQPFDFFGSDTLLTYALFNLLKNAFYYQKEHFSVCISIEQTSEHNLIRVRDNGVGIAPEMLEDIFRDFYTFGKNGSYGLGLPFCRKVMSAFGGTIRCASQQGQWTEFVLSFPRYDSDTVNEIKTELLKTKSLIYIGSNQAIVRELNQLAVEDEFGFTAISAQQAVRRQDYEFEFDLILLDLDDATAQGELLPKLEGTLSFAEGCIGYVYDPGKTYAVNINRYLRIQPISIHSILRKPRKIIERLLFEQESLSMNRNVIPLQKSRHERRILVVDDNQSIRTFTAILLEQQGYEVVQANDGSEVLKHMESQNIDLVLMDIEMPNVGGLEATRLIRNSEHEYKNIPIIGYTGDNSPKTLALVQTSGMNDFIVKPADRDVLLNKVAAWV

| SMILES | QS agonist potency (in words) [1] | EC50 [1, 3] [nM] | Emax [1, 4] [%] | also measured |
| --- | --- | --- | --- | --- |
| CCCCCCCCCC(=O)c1c(C)c[nH]c1C [Compound 20, 1(2,4-dimethyl-1H-pyrrol-3-yl)decan-1-one] | lower agonist activity | 536 ± 80 | 65 ± 16 | – |
| CCCCCCCCCC(=O)c1cc(C)[nH]c1C [Compound 19, 1-(2,5-dimethyl-1H-pyrrol-3-yl)decan-1-one] | lower agonist activity | 679 ± 92 | 66 ± 14 | – |
| CCCCc1ccc(/C=C/C(=O)c2cc[nH]c2)cc1 [Compound 30, 3-(4-butylphenyl)-1-(1H-pyrrol-3-yl)prop-2-en-1-one] | – | 88.4 ± 24.9 | 54 ± 29 | – |
| CCCCCCCCCC(=O)c1cc[nH]c1 [Compound 18, 1-(1H-pyrrol-3-yl)decan-1-one] | – | – | – | production of virulence factor TcpA (TcpA): repressed; effect on bacterial growth (in words) [2]: does not inhibit bacterial growth; production of HapR (HapR; 1 μM of 18, FIG. 3, DMSO control): increased |
| O=C(Cc1ccc(-c2ccccc2)cc1)c1cc[nH]c1 [Compound 34, 2-([1,1′-biphenyl]-4-yl)-1-(1H-pyrrol-3-yl)ethanone] | essentially inactive | > 5000 | 25 | – |
| C/C=C(\N)C(=O)CCCCCCCCCCCC [Compound 11, (Z)-3-aminohexadec-2-en-4-one] | much less active | > 5000 | 38 | EC50 [1, 5]: > 225000 nM; Emax [1, 6]: 38% |
| CCCCc1ccc(/C=C/C(=O)c2ccc[nH]2)cc1 [Compound 31, 3-(4-butylphenyl)-1-(1H-pyrrol-2-yl)prop-2-en-1-one] | – | 731 ± 686 | 45 ± 62 | – |
| CCCCCCC/C=C/C(=O)c1ccc[nH]1 [Compound 33, (E)-1-(1H-pyrrol-2-yl)dec-2-en-1-one] | – | 288 ± 92 | 109 ± 31 | – |
| C/C=C(\N)C(=O)CCCCCCCC [Compound 9, (Z)-3-aminododec-2-en-4-one] | low nM activity | 2.6 ± 0.32 | 112 ± 7 | level of QS activation (in words) [1]: full activation; EC50 [1, 5]: 2.6 nM; Emax [1, 6]: 112% |
| CCCCCCCCCC(=O)[C@@H](O)CC [CAI-1, (S)-3-hydroxytridecan-4-one] | – | – | – | production of virulence factor TcpA (TcpA): repressed; production of HapR (HapR; 10 μM of CAI-1, FIG. 3, DMSO control): activate production of HapR |
| O=C(CCCCCCc1ccccc1)c1ccc[nH]1 [Compound 29, 7-phenyl-1-(1H-pyrrol-2-yl)heptan-1-one] | – | > 5000 | 60 | – |
| CCCCCCCCCC(=O)c1ccc[nH]1 [Compound 17, 1-(1H-pyrrol-2-yl)decan-1-one] | – | 5170 | 103 ± 91 | level of QS activation (in words) [1]: full level of QS response |
| C/C=C(\N)C(=O)CCCCCCCCC [Ea-CAI-1, (Z)-3-aminotridec-2-en-4-one, reference compound] | low nM activity | – | 100 ± 6.6 | level of QS activation (in words) [1]: full activation; EC50 [1, 5]: 4.1 nM; Emax [1, 6]: 100% |
| O=C(CCCCCCc1ccccc1)c1cc[nH]c1 [Compound 28, 7-phenyl-1-(1H-pyrrol-3-yl)heptan-1-one] | – | 35.8 ± 6.1 | 75 ± 10 | – |
| O=C(Cc1ccc(-c2ccccc2)cc1)c1ccc[nH]1 [Compound 35, 2-([1,1′-biphenyl]-4-yl)-1-(1H-pyrrol-2-yl)ethanone] | essentially inactive | > 5000 | 26 | – |
| C/C=C(\N)C(=O)CCCCCCC [Compound 8, (Z)-3-aminoundec-2-en-4-one] | – | – | 109 ± 25 | Emax [1, 6]: 109% |
| CCCCc1ccc(CCC(=O)c2cc[nH]c2)cc1 [Compound 26, 3-(4-butylphenyl)-1-(1H-pyrrol-3-yl)propan-1-one] | – | 10.9 ± 4.8 | 64 ± 42 | – |
| C/C=C(\N)C(=O)CCCCC [Compound 6, (Z)-3-aminonon-2-en-4-one] | – | 594 ± 319 | 100 ± 57 | EC50 [1, 5]: 590 nM; Emax [1, 6]: 100% |
| CCCCc1ccc(CCC(=O)c2ccc[nH]2)cc1 [Compound 27, 3-(4-butylphenyl)-1-(1H-pyrrol-2-yl)propan-1-one] | – | 2020 ± 1680 | 75 ± 45 | – |
